Experimental data: patent US20030134859A1 (SANKYO COMPANY, LIMITED, priority 2000, published 2003)
Counter-ions that a name gives are not always drawn.

Assays:
[1] = system: Mouse preadipocyte strain 3T3-L1; assay: Inhibition of differentiation as an indication of acetic acid uptake; format: cell-based; conditions: Mus musculus, 3T3-L1, 0.1 μM test substance, control (0.01% dimethylsulfoxide) = 100%, read-out: Rate of Uptake (%) of [2-14C] acetic acid
Procedure: As the basal medium, Dulbecco's modified Eagle's (DEM) medium (NISSUI PHARMACEUTICAL CO., LTD) was used. […] All culturing in the present Test Example was carried out in a CO2 incubator at 37° C. and 10% CO2 concentration.
The successively cultured 3T3-L1 cells were inoculated in a Biocoat Collagen I 96-well white/clear plate (Becton Dickinson and Co.) at a concentration of 4,900 cells/well, and were cultured in the basal medium containing added 10% (v/v) inactivated bovine fetal serum (FBS) for 10 days.
The medium was replaced with a differentiation-inducing medium in which inactivated FBS (final concentration: 5%), insulin (Sigma-Aldrich Japan K. K., final concentration: 10 μg/mL), isobutyl methyl xanthine (Aldrich K. K., final concentration: 0.5 mM) and dexamethazone (final concentration: 1 μM) were added so as to be at the final concentrations indicated in the parentheses. The cells were divided in the following 2 groups and were cultured for 4 days; 1) in the presence of 0.01% (v/v) dimethylsulfoxide, and 2) in the presence of 0.01% (v/v) dimethylsulfoxide in which was dissolved 1 mM of the test substance (final concentration of 0.1 μM). Then, the medium was further replaced with a maintenance medium in which inactivated […] and insulin were added to the base medium so as to be at final concentrations of 5% and 100 ng/mL, respectively, and the cells were cultured for 2 days.
The inhibitory activity of the test compound against cell differentiation was assayed by using uptake of [2-^14C] acetic acid into the cultured cells as an indicator. […] Then the cells were further incubated with the newly prepared medium for 1 hr. After washing the well with PBS (−), the cells were dried. To these wells, 100 μL/well of a scintillation cocktail (Hewlett-Packard Co., MICROSCINT-20 PACKARD) were added and their radioactivities were determined with a Packard TopCont microplate Scintillation Counter (Hewlett-Packard Co., PACKARD) and the uptake level of [2-^14C] acetic acid into the cultured cell was calculated.
On the basis of the calculated uptake level of [2-^14C] acetic acid into the cultured cells, the relative uptake level of [2-^14C] acetic acid in the group treated with the test compound was calculated against the uptake level of [2-^14C] acetic acid in the presence of 0.01% (v/v) dimethylsulfoxide solution described in 1) (100%).
Value=Uptake Level (cpm) of [2-^14C] Acetic Acid in the Presence of the Test Substance
Control=Uptake Level (cpm) of [2-^14C] Acetic Acid in the Control Group (0.01% dimethylsulfoxide)
Uptake Rate (%) of [2-^14C] Acetic Acid=100×[Value]/[Control]

[2] = system: Rat white adipocytes; assay: Stimulation of differentiation of the adipocytes (Oil Red O); format: cell-based; conditions: 100 nM test compound, 5 days, Oil Red O ABS550, control = 100%, blank = 0%, Table 7; for activity at 0.1 µM: Rattus norvegicus, Adipocyte, 120 h, read-out: Rate of Differentiation (%)
Procedure: Rat white adipocytes contained in the white adipocyte culture kit, which was purchased from HOKUDO, were used. Mediums for proliferation and for differentiation-inducing, which were contained in the white adipocyte culture kit purchased from HOKUDO, were used.
Immediately after arrival of the purchased cells, all medium for transportation was discarded and replaced with 5 ml of proliferation medium (/25 cm^2-flask) and the cells were cultured for one day. Then, a cell suspension was prepared with proliferation medium so as to be 83,000 cells/mL, and the suspension was plated into a type I 96-well collagen-coated microplate (SUMITOMO BAKELITE CO., ltd.) so as to be 5,000 cells/well (60 μL/well). For the blank, the proliferation medium without the cells was plated into the well (blank well) of each plate.
Further, 1) in the group treated with the test compound, 3 μL/well of a solution in which the test compound (100 μM) was dissolved in DMSO solution and diluted with differentiation-inducing medium by 20 times (final concentration of the test compound: 100 nM, final concentration of DMSO: 0.1% (v/v)) were added to the well where the cells were plated. 2) In the control group, 3 μL/well of DMSO solution that was diluted with differentiation-inducing medium by 20 times (final concentration of DMSO: 0.1% (v/v)) were added to the well where the cells were plated. Further, 3) in the blank group, 3 μL/well of DMSO solution that was diluted with differentiation-inducing medium by 20 times (final concentration: 0.1% (v/v)) were added to the blank well.
After culturing for 5 days, all differentiation-inducing medium was discarded and replaced with 60 μL of 10% (v/v) of formaldehyde solution (for fixation) in each well and the cells were kept stationary for 20 min at room temperature. After this the fixative solution was discarded and replaced with 60 μL of 0.2% (v/v) Triton X (Sigma-Aldrich Japan K. K.) solution in each well and kept stationary for 5 min at the room temperature. Then all Triton X solution was discarded and replaced with 60 μL of 60% (v/v) isopropanol solution containing dissolved Oil Red 0 (Sigma-Aldrich Japan K. K.) so as to be 0.3%, which was adipose tissue staining solution, and the well was left stationary for 10 min at room temperature. After the adipose tissue staining solution was discarded, the well was washed twice with 60 μL of 60% (v/v) isopropanol solution. Then, 100 μL of the DMSO were added to each well and stirred for 5 min at room temperature. The absorbance was measured at 550 nm (ABS550) with a multi-plate reader (LabsSystems), and the stained amount by Oil Red 0 was determined. The measured level at ABS550 in the control group was defined as 100%, while the level at ABS550 in the blank group was defined as 0%. The differentiation rate (%) of the adipocytes treated with the test compound was calculated.

[3] = system: leptin production; assay: Enhancing activity for leptin production in adipocytes (ELISA); format: cell-based, rat; conditions: leptin concentration as % of control group; for Facilitating activity to produce leptin: 24 hr
Method in brief: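 Leptin release, quantified by rat leptin ELISA, expressed as percent of 0.1% DMSO control after 24 h at 37 °C. Cells were floating adipocytes isolated by collagenase digestion of epididymal fat from male 6-week Wistar Imamichi rats; compound tested at 1 nM–1 µM final.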

[4] = Rattus norvegicus, Adipocyte, 24 h, read-out: Facilitating activity to produce leptin
[5] = Rattus norvegicus, Adipocyte, 24 h, 100 nm, read-out: Facilitating activity to produce leptin

Compound	activity at 0.1 µM [2]	other results
N#Cc1ccccc1NC(=O)c1cc([N+](=O)[O-])ccc1Cl [Example 22, N-(2-Cyanophenyl)-(2-chloro-5-nitrophenyl)carboxamide]	127%	activity at 0.1 µM [1]: 51.5%
CCNc1ccc(NC(=O)c2cc([N+](=O)[O-])ccc2Cl)cc1 [Example 115, N-(4-Ethylaminophenyl)-(2-chloro-5-nitrophenyl)carboxamide mono-hydrochloride]	147%	
CCN(CC)c1ccc(NC(=O)c2cc([N+](=O)[O-])ccc2Cl)c(C)c1 [Example 131, N-[4-(Diethylamino)-2-methylphenyl]-(2-chloro-5-nitrophenyl)carboxamide]	132%	
O=C(Nc1ccc(N2CCNCC2)cc1)c1cc([N+](=O)[O-])ccc1Cl [Example 133, N-[4-(Piperazin-1-yl)phenyl]-(2-chloro-5-nitrophenyl)carboxamide]	141%	
CCCCCCNc1ccc(NC(=O)c2cc([N+](=O)[O-])ccc2Cl)cc1 [Example 137, N-(4-n-Hexylaminophenyl)-(2-chloro-5-nitrophenyl)carboxamide]	150%	
CC(C)(C)c1cc(C(=O)Nc2cccc(NC(=O)c3cc([N+](=O)[O-])ccc3Cl)c2)cc(C(C)(C)C)c1O [Example 162, N-[3-[(3,5-di-tert-Butyl-4-hydroxybenzoyl)amino]phenyl]-(2-chloro-5-nitrophenyl)carboxamide]	170%	activity at 1 µM [3, 4]: 111%
CC(C)(C)OC(=O)N1CCN(C(=O)c2ccc(NC(=O)c3cc([N+](=O)[O-])ccc3Cl)cc2)CC1 [Example 166, N-[4-(4-tert-Butoxycarbonylpiperazin-1-ylcarbonyl)phenyl]-(2-chloro-5-nitrophenyl)carboxamide]	115%	activity at 1 µM [3, 4]: 114%; activity at 0.1 µM [3, 5]: 115%
CCOC(=O)Cc1ccc(NC(=O)c2cc([N+](=O)[O-])ccc2Cl)cc1 [Example 168, Ethyl [4-(2-chloro-5-nitrobenzoylamino)phenyl]acetate]	140%	
Cl.NCCc1ccc(NC(=O)c2cc([N+](=O)[O-])ccc2Cl)cc1 [Example 169, N-[4-(2-Aminoethyl)phenyl]-(2-chloro-5-nitrophenyl)carboxamide Hydrochloride 0.2 Hydrate]		Facilitating activity to produce leptin ([3]; 100 nm): 111.6%; Rate of Differentiation (%) [2]: 114.9%
O=C(O)Cc1ccc(NC(=O)c2cc([N+](=O)[O-])ccc2Cl)cc1 [Example 170, [4-(2-Chloro-5-nitrobenzoylamino)phenyl]acetic Acid]	115%	activity at 0.1 µM [3, 5]: 117%
CCN(CC)c1ccc(NC(=O)c2cc([N+](=O)[O-])ccc2Cl)cc1 [Example 172, N-(4-Diethylaminophenyl)-(2-chloro-5-nitrophenyl)carboxamide]	120%	
CN(C)c1ccc(NC(=O)c2cc([N+](=O)[O-])ccc2Cl)cc1 [Example 173, N-(4-Dimethylaminophenyl)-(2-chloro-5-nitrophenyl)carboxamide]	134%	activity at 1 µM [3, 4]: 119%; activity at 0.001 µM ([3]; Rattus norvegicus, Adipocyte, 24 h, 1 nm, read-out: Facilitating activity to produce leptin): 112%
CC(=O)N1CCN(c2ccc(NC(=O)c3cc([N+](=O)[O-])ccc3Cl)cc2)CC1 [Example 183, N-[4-(4-Acetylpiperazin-1-yl)phenyl]-(2-chloro-5-nitrophenyl)carboxamide]	118%	activity at 0.1 µM [3, 5]: 112%
O=C(Nc1ccc(S(=O)(=O)Nc2ccc(-n3ccnc3)cc2)cc1)c1cc([N+](=O)[O-])ccc1Cl [Example 187, N-[[4-[4-(Imidazol-1-yl)phenyl]aminosulfonyl]phenyl]-(2-chloro-5-nitrophenyl)carboxamide]		Facilitating activity to produce leptin ([3]; 10 nm): 113.3%; Facilitating activity to produce leptin ([3]; 100 nm): 126.2%; Rate of Differentiation (%) [2]: 112.7%
Nc1ccc2nc(NC(=O)c3cc([N+](=O)[O-])ccc3Cl)sc2c1 [Example 261, N-(6-Aminobenzothiazol-2-yl]-(2-chloro-5-nitrophenyl)carboxamide]	129%	
CS(=O)(=O)Nc1ccc(-c2csc(NC(=O)c3cc([N+](=O)[O-])ccc3Cl)n2)cc1 [Example 262, N-[4-(4-Methanesulfonylaminophenyl)thiazol-2-yl]-(2-chloro-5-nitrophenyl)carboxamide]	167%	
CC(=O)Nc1ccc(-c2csc(NC(=O)c3cc([N+](=O)[O-])ccc3Cl)n2)cc1 [Example 263, N-[4-(4-Acetylaminophenyl)thiazol-2-yl]-(2-chloro-5—nitrophenyl)carboxamide]	154%	
NC(=O)N1CCN(c2ccc(NC(=O)c3cc([N+](=O)[O-])ccc3Cl)cc2)CC1 [Example 264, N-[4-[(4-Aminocarbonyl)piperazin-1-yl]phenyl]-(2-chloro-5-nitrophenyl)carboxamide]		Rate of Differentiation (%) [2]: 111.5%
CC(=O)Nc1cccc(-c2csc(NC(=O)c3cc([N+](=O)[O-])ccc3Cl)n2)c1 [Example 277, N-[4-(3-Acetylaminophenyl)thiazol-2-yl]-(2-chloro-5-nitrophenyl)carboxamide]	123%	
CC(=O)Nc1ccc2nc(NC(=O)c3cc([N+](=O)[O-])ccc3Cl)sc2c1 [Example 280, N-(6-Acetylaminobenzothiazol-2-yl)-(2-chloro-5-nitrophenyl)carboxamide]	190%	
NC(=O)Nc1ccc2nc(NC(=O)c3cc([N+](=O)[O-])ccc3Cl)sc2c1 [Example 281, N-(6-Aminocarbonylaminobenzothiazol-2-yl)-(2-chloro-5-nitrophenyl)carboxamide]	200%	
